Measured values reported in US8192962B2, “Processes for detecting toxic substances” (Daikin Industries, Ltd., priority 2001, dated 2012).

Test system: Metabolism protein genes
Assay: DNA chip mRNA expression in yeast, metabolism protein genes (Table 7)
Assay type: cell-based, Saccharomyces cerevisiae S288C
Procedure, shortened: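 Expression change after 2 h toxicant exposure (growth-inhibiting, sub-lethal) of log-phase S. cerevisiae S288C at 25° C. Oligo-dT-purified mRNA was labeled with Cy3-dUTP or Cy5-dUTP and hybridized >12 h at 65° C. to a genome-wide chip; ratio of scanned fluorescence to control.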

## C=CC=O [(14), acrolein]
Yeast gene YAL012W
  The level of expressed mRNA in the presence of chemical substance/The level of expressed mRNA in the absence of chemical substance: 0.9
Yeast gene YAL038W
  The level of expressed mRNA in the presence of chemical substance/The level of expressed mRNA in the absence of chemical substance: 0.5
Yeast gene YBR003W
  level of expressed mRNA in the presence/in the absence of chemical substance: 0.8
Yeast gene YBR011C
  level of expressed mRNA in the presence/in the absence of chemical substance: 0.9
Yeast gene YBR020W
  level of expressed mRNA in the presence/in the absence of chemical substance: 1.0
Yeast gene YBR023C
  The level of expressed mRNA in the presence of chemical substance/The level of expressed mRNA in the absence of chemical substance: 0.8
Yeast gene YBR029C
  The level of expressed mRNA in the presence of chemical substance/The level of expressed mRNA in the absence of chemical substance: 0.9
Yeast gene YBR068C
  The level of expressed mRNA in the presence of chemical substance/The level of expressed mRNA in the absence of chemical substance: 1.8
Yeast gene YBR183W
  The level of expressed mRNA in the presence of chemical substance/The level of expressed mRNA in the absence of chemical substance: 1.3
Yeast gene YBR222C
  The level of expressed mRNA in the presence of chemical substance/The level of expressed mRNA in the absence of chemical substance: 0.5
Yeast gene YBR256C
  The level of expressed mRNA in the presence of chemical substance/The level of expressed mRNA in the absence of chemical substance: 5.6
Yeast gene YCL009C
  The level of expressed mRNA in the presence of chemical substance/The level of expressed mRNA in the absence of chemical substance: 0.7
Yeast gene YCL064C
  The level of expressed mRNA in the presence of chemical substance/The level of expressed mRNA in the absence of chemical substance: 0.8
Yeast gene YCR010C
  level of expressed mRNA in the presence/in the absence of chemical substance: 1.2
Yeast gene YCR034W
  level of expressed mRNA in the presence/in the absence of chemical substance: 0.6
Yeast gene YCR048W
  The level of expressed mRNA in the presence of chemical substance/The level of expressed mRNA in the absence of chemical substance: 0.9
Yeast gene YCR098C
  The level of expressed mRNA in the presence of chemical substance/The level of expressed mRNA in the absence of chemical substance: 1.1
Yeast gene YDR019C
  The level of expressed mRNA in the presence of chemical substance/The level of expressed mRNA in the absence of chemical substance: 1.6
Yeast gene YDR050C
  level of expressed mRNA in the presence/in the absence of chemical substance: 1.2
Yeast gene YDR073W
  level of expressed mRNA in the presence/in the absence of chemical substance: 1.2
Yeast gene YDR123C
  level of expressed mRNA in the presence/in the absence of chemical substance: 0.7
Yeast gene YDR178W
  level of expressed mRNA in the presence/in the absence of chemical substance: 1.5
Yeast gene YDR277C
  level of expressed mRNA in the presence/in the absence of chemical substance: 1.3
Yeast gene YDR284C
  level of expressed mRNA in the presence/in the absence of chemical substance: 1.3
Yeast gene YDR345C
  level of expressed mRNA in the presence/in the absence of chemical substance: 0.8
Yeast gene YDR380W
  The level of expressed mRNA in the presence of chemical substance/The level of expressed mRNA in the absence of chemical substance: 0.6
Yeast gene YDR400W
  level of expressed mRNA in the presence/in the absence of chemical substance: 0.9
Yeast gene YDR408C
  level of expressed mRNA in the presence/in the absence of chemical substance: 0.9
Yeast gene YDR483W
  level of expressed mRNA in the presence/in the absence of chemical substance: 0.8
Yeast gene YDR497C
  The level of expressed mRNA in the presence of chemical substance/The level of expressed mRNA in the absence of chemical substance: 0.6
Yeast gene YDR502C
  The level of expressed mRNA in the presence of chemical substance/The level of expressed mRNA in the absence of chemical substance: 0.8
Yeast gene YDR516C
  The level of expressed mRNA in the presence of chemical substance/The level of expressed mRNA in the absence of chemical substance: 0.7
Yeast gene YEL063C
  level of expressed mRNA in the presence/in the absence of chemical substance: 0.8
Yeast gene YER015W
  level of expressed mRNA in the presence/in the absence of chemical substance: 1.1
Yeast gene YER026C
  The level of expressed mRNA in the presence of chemical substance/The level of expressed mRNA in the absence of chemical substance: 1.1
Yeast gene YER053C
  The level of expressed mRNA in the presence of chemical substance/The level of expressed mRNA in the absence of chemical substance: 1.3
Yeast gene YER069W
  The level of expressed mRNA in the presence of chemical substance/The level of expressed mRNA in the absence of chemical substance: 1.3
Yeast gene YER081W
  level of expressed mRNA in the presence/in the absence of chemical substance: 1.6
Yeast gene YER096W
  The level of expressed mRNA in the presence of chemical substance/The level of expressed mRNA in the absence of chemical substance: 3.1
Yeast gene YER120W
  level of expressed mRNA in the presence/in the absence of chemical substance: 0.9
Yeast gene YER178W
  The level of expressed mRNA in the presence of chemical substance/The level of expressed mRNA in the absence of chemical substance: 0.9
Yeast gene YFL011W
  level of expressed mRNA in the presence/in the absence of chemical substance: 0.8
Yeast gene YFL014W
  The level of expressed mRNA in the presence of chemical substance/The level of expressed mRNA in the absence of chemical substance: 7.3
Yeast gene YFL030W
  The level of expressed mRNA in the presence of chemical substance/The level of expressed mRNA in the absence of chemical substance: 0.8
Yeast gene YFL031W
  The level of expressed mRNA in the presence of chemical substance/The level of expressed mRNA in the absence of chemical substance: 0.4
Yeast gene YFL056C
  The level of expressed mRNA in the presence of chemical substance/The level of expressed mRNA in the absence of chemical substance: 7.8
Yeast gene YFL057C
  The level of expressed mRNA in the presence of chemical substance/The level of expressed mRNA in the absence of chemical substance: 23.4
Yeast gene YFR047C
  The level of expressed mRNA in the presence of chemical substance/The level of expressed mRNA in the absence of chemical substance: 1.9
Yeast gene YGL012W
  level of expressed mRNA in the presence/in the absence of chemical substance: 0.8
Yeast gene YGL022W
  The level of expressed mRNA in the presence of chemical substance/The level of expressed mRNA in the absence of chemical substance: 0.5
Yeast gene YGL115W
  level of expressed mRNA in the presence/in the absence of chemical substance: 1.2
Yeast gene YGL205W
  level of expressed mRNA in the presence/in the absence of chemical substance: 1.0
Yeast gene YGL209W
  The level of expressed mRNA in the presence of chemical substance/The level of expressed mRNA in the absence of chemical substance: 1.6
Yeast gene YGL248W
  The level of expressed mRNA in the presence of chemical substance/The level of expressed mRNA in the absence of chemical substance: 1.3
Yeast gene YGR037C
  The level of expressed mRNA in the presence of chemical substance/The level of expressed mRNA in the absence of chemical substance: 1.5
Yeast gene YGR055W
  The level of expressed mRNA in the presence of chemical substance/The level of expressed mRNA in the absence of chemical substance: 1.2
Yeast gene YGR096W
  level of expressed mRNA in the presence/in the absence of chemical substance: 1.2
Yeast gene YGR191W
  level of expressed mRNA in the presence/in the absence of chemical substance: 0.7
Yeast gene YGR194C
  The level of expressed mRNA in the presence of chemical substance/The level of expressed mRNA in the absence of chemical substance: 1.0
Yeast gene YGR204W
  level of expressed mRNA in the presence/in the absence of chemical substance: 0.5
Yeast gene YGR256W
  The level of expressed mRNA in the presence of chemical substance/The level of expressed mRNA in the absence of chemical substance: 1.1
Yeast gene YGR282C
  The level of expressed mRNA in the presence of chemical substance/The level of expressed mRNA in the absence of chemical substance: 1.0
Yeast gene YGR288W
  level of expressed mRNA in the presence/in the absence of chemical substance: 1.1
Yeast gene YHR025W
  level of expressed mRNA in the presence/in the absence of chemical substance: 0.6
Yeast gene YHR111W
  The level of expressed mRNA in the presence of chemical substance/The level of expressed mRNA in the absence of chemical substance: 1.7
Yeast gene YHR123W
  level of expressed mRNA in the presence/in the absence of chemical substance: 0.8
Yeast gene YHR137W
  The level of expressed mRNA in the presence of chemical substance/The level of expressed mRNA in the absence of chemical substance: 0.8
Yeast gene YHR174W
  The level of expressed mRNA in the presence of chemical substance/The level of expressed mRNA in the absence of chemical substance: 0.6
Yeast gene YHR176W
  The level of expressed mRNA in the presence of chemical substance/The level of expressed mRNA in the absence of chemical substance: 1.3
Yeast gene YHR210C
  level of expressed mRNA in the presence/in the absence of chemical substance: 1.0
Yeast gene YIL006W
  level of expressed mRNA in the presence/in the absence of chemical substance: 1.0
Yeast gene YIL045W
  The level of expressed mRNA in the presence of chemical substance/The level of expressed mRNA in the absence of chemical substance: 1.6
Yeast gene YIL107C
  The level of expressed mRNA in the presence of chemical substance/The level of expressed mRNA in the absence of chemical substance: 1.6
Yeast gene YIL154C
  The level of expressed mRNA in the presence of chemical substance/The level of expressed mRNA in the absence of chemical substance: 0.9
Yeast gene YIL155C
  The level of expressed mRNA in the presence of chemical substance/The level of expressed mRNA in the absence of chemical substance: 1.3
Yeast gene YIL167W
  The level of expressed mRNA in the presence of chemical substance/The level of expressed mRNA in the absence of chemical substance: 1.4
Yeast gene YIR034C
  The level of expressed mRNA in the presence of chemical substance/The level of expressed mRNA in the absence of chemical substance: 1.2
Yeast gene YIR036C
  The level of expressed mRNA in the presence of chemical substance/The level of expressed mRNA in the absence of chemical substance: 1.2
Yeast gene YJL031C
  The level of expressed mRNA in the presence of chemical substance/The level of expressed mRNA in the absence of chemical substance: 3.0
Yeast gene YJL068C
  The level of expressed mRNA in the presence of chemical substance/The level of expressed mRNA in the absence of chemical substance: 1.5
Yeast gene YJL088W
  The level of expressed mRNA in the presence of chemical substance/The level of expressed mRNA in the absence of chemical substance: 2.0
Yeast gene YJL099W
  The level of expressed mRNA in the presence of chemical substance/The level of expressed mRNA in the absence of chemical substance: 1.8
Yeast gene YJL121C
  level of expressed mRNA in the presence/in the absence of chemical substance: 0.9
Yeast gene YJL167W
  level of expressed mRNA in the presence/in the absence of chemical substance: 0.9
Yeast gene YJL172W
  The level of expressed mRNA in the presence of chemical substance/The level of expressed mRNA in the absence of chemical substance: 0.9
Yeast gene YJL216C
  level of expressed mRNA in the presence/in the absence of chemical substance: 1.1
Yeast gene YJL219W
  The level of expressed mRNA in the presence of chemical substance/The level of expressed mRNA in the absence of chemical substance: 1.1
Yeast gene YJR077C
  level of expressed mRNA in the presence/in the absence of chemical substance: 0.7
Yeast gene YJR137C
  The level of expressed mRNA in the presence of chemical substance/The level of expressed mRNA in the absence of chemical substance: 1.2
Yeast gene YJR143C
  level of expressed mRNA in the presence/in the absence of chemical substance: 0.6
Yeast gene YJR148W
  The level of expressed mRNA in the presence of chemical substance/The level of expressed mRNA in the absence of chemical substance: 1.3
Yeast gene YJR155W
  The level of expressed mRNA in the presence of chemical substance/The level of expressed mRNA in the absence of chemical substance: 9.4
Yeast gene YKL035W
  The level of expressed mRNA in the presence of chemical substance/The level of expressed mRNA in the absence of chemical substance: 0.6
